≈ marks a conversion by molar mass, not a printed value.
Legend:
[1] = test system: Enterococcus faecalis; experiment: Antibacterial activity against vancomycin-resistant Enterococcus faecalis 12 by dilution susceptibility test; assay type: functional
[2] = test system: Enterococcus faecium; experiment: Antibacterial activity against vancomycin-resistant Enterococcus faecium 7 by dilution susceptibility test; assay type: functional
[3] = test system: Staphylococcus aureus; experiment: Antibacterial activity against methicillin-resistant Staphylococcus aureus LMG 15975 after 16 to 24 hrs by broth microdilution method; assay type: functional
[4] = Cytotoxicity against human HepG2 cells after 48 hrs by XTT assay; assay type: cell-based
[5] = test system: Acinetobacter baumannii; experiment: Antibacterial activity against Acinetobacter baumannii LMG1041 after 16 to 24 hrs by broth microdilution method; assay type: functional
[6] = test system: Streptococcus pneumoniae; experiment: Antibacterial activity against quinolone-resistant Streptococcus pneumoniae TE 122-024 by dilution susceptibility test; assay type: functional
[7] = test system: Staphylococcus aureus; experiment: Antibacterial activity against mupirocin-resistant Staphylococcus aureus V321 after 16 to 24 hrs by broth microdilution method; assay type: functional
[8] = test system: Staphylococcus aureus; experiment: Antibacterial activity against mupirocin-resistant Staphylococcus aureus V86 after 16 to 24 hrs by broth microdilution method; assay type: functional
[9] = test system: Streptococcus pneumoniae; experiment: Antibacterial activity against Streptococcus pneumoniae ATCC 49619 by dilution susceptibility test; assay type: functional
[10] = test system: Staphylococcus aureus; experiment: Antibacterial activity against methicillin-resistant Staphylococcus aureus MO17 after 16 to 24 hrs by broth microdilution method; assay type: functional
[11] = test system: Staphylococcus epidermidis; experiment: Antibacterial activity against methicillin-resistant Staphylococcus epidermidis TA12 by dilution susceptibility test; assay type: functional
[12] = test system: Staphylococcus aureus; experiment: Antibacterial activity against quinolone-resistant Staphylococcus aureus FR 131 after 16 to 24 hrs by broth microdilution method; assay type: functional
[13] = test system: Streptococcus pneumoniae; experiment: Antibacterial activity against macrolide-resistant Streptococcus pneumoniae 956 by dilution susceptibility test; assay type: functional
[14] = Cytotoxicity against human HuH7 cells after 48 hrs by XTT assay; assay type: cell-based, Huh-7
[15] = test system: Streptococcus pyogenes; experiment: Antibacterial activity against macrolide-resistant Streptococcus pyogenes 2 Finland by dilution susceptibility test; assay type: functional
[16] = test system: Streptococcus pneumoniae; experiment: Antibacterial activity against macrolide-resistant Streptococcus pneumoniae 158bg by dilution susceptibility test; assay type: functional
[17] = test system: Staphylococcus aureus; experiment: Antibacterial activity against macrolide-resistant Staphylococcus aureus 853E after 16 to 24 hrs by broth microdilution method; assay type: functional
[18] = test system: Staphylococcus epidermidis; experiment: Antibacterial activity against methicillin-susceptible Staphylococcus epidermidis RO7 by dilution susceptibility test; assay type: functional
[19] = test system: Staphylococcus aureus; experiment: Antibacterial activity against tetracycline-resistant Staphylococcus aureus 4216 after 16 to 24 hrs by broth microdilution method; assay type: functional
[20] = test system: Staphylococcus aureus; experiment: Antibacterial activity against methicillin-resistant Staphylococcus aureus PICI after 16 to 24 hrs by broth microdilution method; assay type: functional
[21] = test system: Staphylococcus aureus; experiment: Antibacterial activity against methicillin-resistant Staphylococcus aureus 4384 after 16 to 24 hrs by broth microdilution method; assay type: functional
[22] = test system: Enterococcus faecalis; experiment: Antibacterial activity against vancomycin-sensitive Enterococcus faecalis 24 by dilution susceptibility test; assay type: functional
[23] = test system: Streptococcus pyogenes; experiment: Antibacterial activity against macrolide-sensitive Streptococcus pyogenes 29A-TF by dilution susceptibility test; assay type: functional
[24] = test system: Staphylococcus aureus; experiment: Antibacterial activity against Staphylococcus aureus LMG 10147 after 16 to 24 hrs by broth microdilution method; assay type: functional
[25] = test system: Pseudomonas aeruginosa; experiment: Antibacterial activity against Pseudomonas aeruginosa LMG6395 by dilution susceptibility test; assay type: functional
[26] = test system: Bacillus cereus; experiment: Antibacterial activity against Bacillus cereus CCUG 7414 by dilution susceptibility test; assay type: functional
[27] = test system: Escherichia coli; experiment: Antibacterial activity against Escherichia coli LMG15862 by dilution susceptibility test; assay type: functional
[28] = test system: Streptococcus pneumoniae; experiment: Antibacterial activity against macrolide-resistant Streptococcus pneumoniae BAA1407 by dilution susceptibility test; assay type: functional
[29] = test system: Streptococcus pneumoniae; experiment: Antibacterial activity against quinolone-sensitive Streptococcus pneumoniae 19A-TN by dilution susceptibility test; assay type: functional
[30] = test system: Staphylococcus aureus; experiment: Antibacterial activity against Staphylococcus aureus CCUG 1800 after 16 to 24 hrs by broth microdilution method; assay type: functional
[31] = test system: Staphylococcus aureus; experiment: Antibacterial activity against Staphylococcus aureus ATCC 29213 after 16 to 24 hrs by broth microdilution method; assay type: functional
[32] = test system: Staphylococcus aureus; experiment: Antibacterial activity against macrolide-resistant Staphylococcus aureus PK2 after 16 to 24 hrs by broth microdilution method; assay type: functional
[33] = test system: Staphylococcus aureus; experiment: Antibacterial activity against macrolide-resistant Staphylococcus aureus 6 Holland after 16 to 24 hrs by broth microdilution method; assay type: functional
[34] = test system: Mycolicibacterium frederiksbergense; experiment: Antibacterial activity against Mycobacterium frederiksbergense by dilution susceptibility test; assay type: functional
[35] = test system: Klebsiella pneumoniae; experiment: Antibacterial activity against Klebsiella pneumoniae LMG20218 by dilution susceptibility test; assay type: functional
[36] = test system: Streptococcus pneumoniae; experiment: Antibacterial activity against macrolide-sensitive Streptococcus pneumoniae SP030 by dilution susceptibility test; assay type: functional
[37] = test system: Streptococcus pyogenes; experiment: Antibacterial activity against macrolide-resistant Streptococcus pyogenes 21 Finland by dilution susceptibility test; assay type: functional
[38] = test system: Streptococcus pneumoniae; experiment: Antibacterial activity against tetracycline-resistant Streptococcus pneumoniae TE 122-026 by dilution susceptibility test; assay type: functional
[39] = Cytotoxicity against human MT4 cells after 48 hrs by XTT assay; assay type: cell-based
[40] = test system: Staphylococcus aureus; experiment: Antibacterial activity against mupirocin-resistant Staphylococcus aureus V55 after 16 to 24 hrs by broth microdilution method; assay type: functional
[41] = test system: Staphylococcus aureus; experiment: Antibacterial activity against mupirocin-resistant Staphylococcus aureus V308 after 16 to 24 hrs by broth microdilution method; assay type: functional
[42] = test system: Staphylococcus aureus; experiment: Antibacterial activity against macrolide-resistant Staphylococcus aureus 56 Japan after 16 to 24 hrs by broth microdilution method; assay type: functional

CN[C@H](CC(C)C)C(=O)N[C@H]1C(=O)N[C@@H](CC(N)=O)C(=O)N[C@H]2C(=O)N[C@H]3C(=O)N[C@H](C(=O)N[C@H](C(=O)O)c4cc(O)cc(O)c4-c4cc3ccc4O)[C@H](O)c3ccc(c(Cl)c3)Oc3cc2cc(c3O[C@@H]2O[C@H](CO)[C@@H](O)[C@H](O)[C@H]2O[C@H]2C[C@](C)(N)[C@H](O)[C@H](C)O2)Oc2ccc(cc2Cl)[C@H]1O [VANCOMYCIN]
MIC [1]: > 256 µg/mL
MIC [2]: > 256 µg/mL

NC[C@H]1O[C@H](O[C@H]2[C@H](O)[C@@H](O[C@H]3O[C@H](CO)[C@@H](O)[C@H](N)[C@H]3O)[C@H](N)C[C@@H]2N)[C@H](O)[C@@H](O)[C@@H]1O [KANAMYCIN]
MIC [1]: > 256 µg/mL
MIC [2]: > 256 µg/mL

CCCCCCCCC[C@@H]1CC(O)=C(C(=O)CCCC)C(=O)O1
MIC [3]: < 0.6 µg/mL
CC50 at 48 h [4]: 36 µg/mL (≈ 111 µM)
MIC [5]: 8 to 16 µg/mL (≈ 24.7 to 49.3 µM)

NC[C@H]1O[C@H](O[C@H]2[C@H](O)[C@@H](O[C@H]3O[C@H](CO)[C@@H](O)[C@H](N)[C@H]3O)[C@H](N)C[C@@H]2N)[C@H](N)C[C@@H]1O [TOBRAMYCIN]
MIC [1]: > 256 µg/mL
MIC [2]: > 256 µg/mL

CCCCCCCCCC[C@@H]1CC(O)=C(C(=O)CCC)C(=O)O1
MIC [3]: 0.6 to 0.8 µg/mL (≈ 1.85 to 2.47 µM)
CC50 at 48 h [4]: 25 µg/mL (≈ 77.1 µM)
MIC [5]: 8 to 16 µg/mL (≈ 24.7 to 49.3 µM)

CCCCCCC[C@@H]1CC(O)=C(C(=O)CCC)C(=O)O1
MIC [3]: 1 to 2 µg/mL (≈ 3.54 to 7.08 µM)
MIC [5]: > 64 µg/mL

CCCCCCCCC[C@@H]1CC(O)=C(C(=O)CCCCC)C(=O)O1
MIC [3]: 0.6 to 0.8 µg/mL (≈ 1.77 to 2.36 µM)
CC50 at 48 h [4]: 15 µg/mL (≈ 44.3 µM)
MIC [5]: 4 to 8 µg/mL (≈ 11.8 to 23.6 µM)

CCCCCCCCCCC[C@@H]1CC(O)=C(C(=O)CCC)C(=O)O1
MIC [3]: 0.1 to 0.2 µg/mL (≈ 0.295 to 0.591 µM)
CC50 at 48 h [4]: 19 µg/mL (≈ 56.1 µM)
MIC [5]: < 4 µg/mL

CCCC(=O)C1=C(O)C[C@@H](CC)OC1=O
MIC [3]: > 50 µg/mL
CC50 at 48 h [4]: > 100 µg/mL
MIC [5]: > 64 µg/mL

CCCCCCCC[C@@H]1CC(O)=C(C(=O)CCC)C(=O)O1
MIC [3]: 0.8 to 1.5 µg/mL (≈ 2.7 to 5.06 µM)
CC50 at 48 h [4]: 30 µg/mL (≈ 101 µM)
MIC [5]: 24 to 32 µg/mL (≈ 81 to 108 µM)

CCCCCCCCC[C@@H]1CC(O)=C(C(=O)CC)C(=O)O1
MIC [3]: 0.7 µg/mL (≈ 2.36 µM)
CC50 at 48 h [4]: 50 µg/mL (≈ 169 µM)
MIC [5]: 32 to 48 µg/mL (≈ 108 to 162 µM)

CCCCCCCCC[C@@H]1CC(O)=C(C(C)=O)C(=O)O1
MIC [3]: 1.5 to 2.5 µg/mL (≈ 5.31 to 8.85 µM)
CC50 at 48 h [4]: 71 µg/mL (≈ 251 µM)
MIC [5]: > 64 µg/mL

GENTAMICIN
MIC [1]: > 256 µg/mL
MIC [2]: > 256 µg/mL

CCCCCCCCC[C@@H]1CC(O)=C(C(=O)CCC)C(=O)O1
MIC [6]: 8 µg/mL (≈ 25.8 µM)
MIC [1]: 2 µg/mL (≈ 6.44 µM)
MIC [7]: 0.1 to 0.25 µg/mL (≈ 0.322 to 0.805 µM)
MIC [2]: 2 µg/mL (≈ 6.44 µM)
MIC [8]: 0.1 to 0.25 µg/mL (≈ 0.322 to 0.805 µM)
MIC [9]: 4 µg/mL (≈ 12.9 µM)
MIC [10]: 2 µg/mL (≈ 6.44 µM)
MIC [11]: 2 µg/mL (≈ 6.44 µM)
MIC [3]: 0.8 µg/mL (≈ 2.58 µM)
MIC [12]: 2 µg/mL (≈ 6.44 µM)
MIC [13]: 4 µg/mL (≈ 12.9 µM)
CC50 at 48 h [14]: 40 µg/mL (≈ 129 µM)
MIC [15]: 8 µg/mL (≈ 25.8 µM)
MIC [16]: 4 µg/mL (≈ 12.9 µM)
MIC [17]: 2 µg/mL (≈ 6.44 µM)
MIC [18]: 1 µg/mL (≈ 3.22 µM)
MIC [19]: 2 µg/mL (≈ 6.44 µM)
MIC [20]: 4 µg/mL (≈ 12.9 µM)
MIC [21]: 2 µg/mL (≈ 6.44 µM)
CC50 at 48 h [4]: 33 µg/mL (≈ 106 µM)
MIC [22]: 2 µg/mL (≈ 6.44 µM)
MIC [23]: 8 µg/mL (≈ 25.8 µM)
MIC [24]: 0.4 µg/mL (≈ 1.29 µM)
MIC [25]: > 64 µg/mL
MIC [26]: ≤ 1 µg/mL
MIC [27]: > 64 µg/mL
MIC [28]: 8 µg/mL (≈ 25.8 µM)
MIC [29]: 8 µg/mL (≈ 25.8 µM)
MIC [30]: 0.25 µg/mL (≈ 0.805 µM)
MIC [31]: 4 µg/mL (≈ 12.9 µM)
MIC [32]: 2 µg/mL (≈ 6.44 µM)
MIC [33]: 1 µg/mL (≈ 3.22 µM)
MIC [34]: ≤ 0.5 µg/mL
MIC [35]: > 64 µg/mL
MIC [36]: 8 µg/mL (≈ 25.8 µM)
MIC [37]: 8 µg/mL (≈ 25.8 µM)
MIC [38]: 4 µg/mL (≈ 12.9 µM)
CC50 at 48 h [39]: 4.7 µg/mL (≈ 15.1 µM)
MIC [40]: ≤ 0.1 µg/mL
MIC [5]: 12 to 24 µg/mL (≈ 38.7 to 77.3 µM)
MIC [41]: 0.1 to 0.25 µg/mL (≈ 0.322 to 0.805 µM)
MIC [42]: 4 µg/mL (≈ 12.9 µM)

From ChEMBL document CHEMBL4138142, “Antibacterial 3,6-Disubstituted 4-Hydroxy-5,6-dihydro-2H-pyran-2-ones from Serratia plymuthica MF371-2” (J Nat Prod, 2017)
